What all share (assay): spectrophotometric GST assay, steady state
Holding throughout (assay type): biochemical
Common to all, as to details: co-substrate GSH; pH and temperature not given; read-out: K m ^CDNB

For one assay, the target named is T1, LmGSTS9 (Locusta migratoria, UniProt V9Q315).
T1 construct: gene GSTs9; full-length ORF in pET28a, E. coli BL21(DE3), His-tag Ni-NTA purified
The source says:
spectrophotometric GST assay, steady state on LmGSTS9

The next assay concerns the target T2, LmGSTO3 (Locusta migratoria, UniProt V9Q2Q7).
T2 construct: gene GSTo3; full-length ORF in pET28a, E. coli BL21(DE3), His-tag Ni-NTA purified
T2 sequence (V9Q2Q7 1-241): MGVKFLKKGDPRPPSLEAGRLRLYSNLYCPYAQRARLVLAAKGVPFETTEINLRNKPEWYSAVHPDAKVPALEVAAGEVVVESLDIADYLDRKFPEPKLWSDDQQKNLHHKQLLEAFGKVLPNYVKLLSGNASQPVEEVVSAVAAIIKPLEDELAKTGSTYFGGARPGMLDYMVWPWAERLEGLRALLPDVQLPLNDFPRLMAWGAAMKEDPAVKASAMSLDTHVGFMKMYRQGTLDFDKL
The text has this:
spectrophotometric GST assay, steady state on LmGSTO3

For a further assay, the target named is T3, LmGSTE1 (Locusta migratoria, UniProt V9Q4G7).
T3 construct: gene GSTe1; full-length ORF in pET28a, E. coli BL21(DE3), His-tag Ni-NTA purified
T3 sequence (V9Q4G7 1-222): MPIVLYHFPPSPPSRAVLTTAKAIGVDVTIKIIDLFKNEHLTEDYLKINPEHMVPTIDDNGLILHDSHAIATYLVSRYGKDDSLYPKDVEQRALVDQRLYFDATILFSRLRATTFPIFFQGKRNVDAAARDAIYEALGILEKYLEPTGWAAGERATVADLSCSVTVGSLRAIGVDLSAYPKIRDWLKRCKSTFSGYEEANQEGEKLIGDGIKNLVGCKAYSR
The text has this:
spectrophotometric GST assay, steady state on LmGSTE1

A further assay addresses T4, LmGSTO1 (Locusta migratoria, UniProt V9Q3Y6).
T4 construct: gene GSTo1; full-length ORF in pET28a, E. coli BL21(DE3), His-tag Ni-NTA purified
T4 sequence (V9Q3Y6 1-242): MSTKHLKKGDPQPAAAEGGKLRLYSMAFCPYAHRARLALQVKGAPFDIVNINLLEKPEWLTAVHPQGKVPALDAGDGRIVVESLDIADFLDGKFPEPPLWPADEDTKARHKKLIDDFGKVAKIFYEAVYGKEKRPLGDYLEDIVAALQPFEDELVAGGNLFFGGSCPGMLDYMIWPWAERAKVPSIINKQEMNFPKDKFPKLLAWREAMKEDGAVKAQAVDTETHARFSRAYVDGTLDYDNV
The source says:
spectrophotometric GST assay, steady state on LmGSTO1

In a further assay the target is T5, LmGSTD2 (Locusta migratoria, UniProt V9Q3Y3).
T5 construct: gene GSTd2; full-length ORF in pET28a, E. coli BL21(DE3), His-tag Ni-NTA purified
T5 sequence (V9Q3Y3 1-214): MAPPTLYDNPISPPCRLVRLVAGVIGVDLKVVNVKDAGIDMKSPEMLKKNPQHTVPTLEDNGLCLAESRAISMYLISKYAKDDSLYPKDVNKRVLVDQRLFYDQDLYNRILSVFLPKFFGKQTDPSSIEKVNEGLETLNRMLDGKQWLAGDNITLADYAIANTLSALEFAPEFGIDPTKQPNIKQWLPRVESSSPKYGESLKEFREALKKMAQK
The source says:
spectrophotometric GST assay, steady state on LmGSTD2

For the next assay, the target named is T6, LmGSTD7 (Locusta migratoria, UniProt V9Q328).
T6 construct: gene GSTd7; full-length ORF in pET28a, E. coli BL21(DE3), His-tag Ni-NTA purified
T6 sequence (V9Q328 1-233): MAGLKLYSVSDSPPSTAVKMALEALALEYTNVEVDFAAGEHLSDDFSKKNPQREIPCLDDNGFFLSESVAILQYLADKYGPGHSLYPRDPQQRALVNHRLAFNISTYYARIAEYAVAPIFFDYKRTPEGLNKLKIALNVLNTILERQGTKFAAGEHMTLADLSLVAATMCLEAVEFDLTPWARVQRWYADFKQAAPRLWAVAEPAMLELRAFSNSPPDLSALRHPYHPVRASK
The text has this:
spectrophotometric GST assay, steady state on LmGSTD7

For the next assay, the target named is T7, LmGSTT1 (Locusta migratoria, UniProt F4YUJ7).
T7 construct: full-length ORF in pET28a, E. coli BL21(DE3), His-tag Ni-NTA purified
T7 sequence (F4YUJ7 1-231): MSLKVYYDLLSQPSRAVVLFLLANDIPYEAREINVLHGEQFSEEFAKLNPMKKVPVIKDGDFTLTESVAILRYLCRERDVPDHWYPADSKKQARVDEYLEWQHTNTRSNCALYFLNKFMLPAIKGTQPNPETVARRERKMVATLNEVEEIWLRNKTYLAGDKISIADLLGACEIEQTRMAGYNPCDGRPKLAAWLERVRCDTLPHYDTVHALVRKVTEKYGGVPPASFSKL
The source says:
spectrophotometric GST assay, steady state on LmGSTT1

The next assay addresses T8, LmGSTD4 (Locusta migratoria, UniProt V9Q2Q3).
T8 construct: gene GSTd4; full-length ORF in pET28a, E. coli BL21(DE3), His-tag Ni-NTA purified
T8 sequence (V9Q2Q3 1-218): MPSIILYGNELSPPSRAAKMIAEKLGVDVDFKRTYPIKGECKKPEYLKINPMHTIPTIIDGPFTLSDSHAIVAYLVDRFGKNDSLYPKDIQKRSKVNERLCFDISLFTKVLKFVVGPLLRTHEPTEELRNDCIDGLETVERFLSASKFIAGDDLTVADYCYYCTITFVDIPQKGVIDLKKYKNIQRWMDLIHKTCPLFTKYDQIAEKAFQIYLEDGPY
The source says:
spectrophotometric GST assay, steady state on LmGSTD4

The target of a further assay is T9, LmGSTD5 (Locusta migratoria, UniProt V9Q4A2).
T9 construct: gene GSTd5; full-length ORF in pET28a, E. coli BL21(DE3), His-tag Ni-NTA purified
T9 sequence (V9Q4A2 1-224): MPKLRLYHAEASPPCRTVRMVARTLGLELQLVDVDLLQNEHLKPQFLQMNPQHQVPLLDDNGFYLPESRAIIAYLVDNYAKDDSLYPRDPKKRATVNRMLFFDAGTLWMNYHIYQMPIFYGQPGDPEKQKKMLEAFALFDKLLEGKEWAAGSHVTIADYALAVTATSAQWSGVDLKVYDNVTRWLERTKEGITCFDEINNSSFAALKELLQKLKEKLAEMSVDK
The text has this: spectrophotometric GST assay, steady state on LmGSTD5

T1 sequence (V9Q315 1-204): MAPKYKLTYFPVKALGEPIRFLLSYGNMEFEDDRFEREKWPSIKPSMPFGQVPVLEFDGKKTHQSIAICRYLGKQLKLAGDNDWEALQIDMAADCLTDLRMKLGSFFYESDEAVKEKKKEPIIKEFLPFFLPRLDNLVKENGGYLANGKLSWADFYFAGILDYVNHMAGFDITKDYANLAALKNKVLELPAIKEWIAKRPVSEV

For the compound `O=[N+]([O-])c1ccc(Cl)c([N+](=O)[O-])c1` [CDNB], the Km on LmGSTS9 was found to be 351 ± 26 µM; at LmGSTO3, 216 ± 4 µM; on LmGSTE1, 7 ± 1 µM; at LmGSTO1, 228 ± 45 µM; on LmGSTD2 it was 923 ± 49 µM; at LmGSTD7, 492 ± 39 µM. Besides, the Km at LmGSTT1 worked out at 260 ± 14 µM; at LmGSTD4, 15 ± 2 µM; at LmGSTD5, 21 ± 1 µM.
